Target: T1, recombinant human IL17a (binding to its receptor IL17R) (Homo sapiens, UniProt Q16552)
T1 construct: purchased R&D Systems 317-ILB (IL17a); 177-IR (IL17R/Fc)
T1 sequence (Q16552 20-155 limits assumed): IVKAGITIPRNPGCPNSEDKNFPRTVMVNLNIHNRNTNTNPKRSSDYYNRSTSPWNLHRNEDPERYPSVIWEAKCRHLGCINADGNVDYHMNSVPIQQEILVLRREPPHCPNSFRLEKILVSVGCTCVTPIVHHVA
Test: IL-17 competition ELISA I (IL17a coated, IL17R/Fc binding)
Experimental: ELISA I: The ability of the compounds to block binding of IL17a to its receptor, IL17R, was analyzed in a competition ELISA format. High binding 96-well plates (Costar #9018) were coated with 20 nM of recombinant human IL17a (R&D Systems #317-ILB) in PBS (0.64 μg/mL), 100 μL/well, for 30 min at 37′C followed by 5 min at 4′C. Plates were then washed in PBST (PBS/0.05% Tween-20) on a plate washer, (Biotech EL-450) blocked with protein-free blocking buffer (Thermo Scientific #37573) in 250 μL/well for 30 min on shaker at room temperature, and then washed again. Compound dilutions prepared in PBST were added into the wells in duplicates followed by the addition of IL17R/Fc (R&D Systems #177-IR) at a final concentration of 12 nM. Plates were then incubated for 30 min at room temperature on the shaker. Wells with no compound served as a positive “no competitor” control, while wells with no IL17R/Fc and no compound served as a blank negative control. After an additional PBST wash, 50 ng/mL HRP-conjugated goat anti-human Fc IgG (KPL #04-10-20) was added to the plate for 30 min at room temperature, followed by PBST wash and addition of SureBlue™ TMB (KPL #52-00-03). After the sufficient color development, the reaction was fixed by the addition of 100 μL/well 0.5 N HCl and absorbance was measured at 450 nm on Biotek plate reader.
Data were processed using BioAssay Enterprise v10.1.4 (CambridgeSoft) software. Linear OD λ450 were plotted against log concentration (x) and fitted to a 4-parameter logistic equation. IC50 was calculated using positive ‘no competitor’ control data as an upper limit and blank control as a lower limit in each assay.

Row | SMILES | IC50 [µM]
1 | CN1CCCCCNC(=O)CC2(CCCC2)CC(=O)N[C@H](Cc2ccc(NC(=O)[C@H](Cc3ccccc3Cl)NC(=O)c3ccc(F)cc3)cc2)C(=O)NCC1=O [Compound 308] | 0.1 to 1
2 | O=C1CC2(CCCC2)CC(=O)N[C@H](Cc2ccc(NC(=O)[C@H](Cc3ccccc3Cl)NC(=O)Cc3ccccc3)cc2)C(=O)NCC(=O)OCCCCCN1 [Compound 318] | 0.1 to 1
3 | COC(=O)[C@@H]1CCCCNC(=O)CNC(=O)[C@@H](Cc2ccc(NC(=O)[C@H](Cc3ccccc3Cl)NC(=O)Cc3ccc(O)cc3)cc2)NC(=O)CC2(CCCC2)CC(=O)N1 [Compound 249] | < 0.1
4 | C=CCOC(=O)N1CCNC(=O)CNC(=O)[C@@H](Cc2ccc(NC(=O)[C@H](Cc3ccccc3Cl)NC(=O)Cc3ccccc3)cc2)NC(=O)CC2(CCCC2)CC(=O)NCC1 [Compound 284] | 0.1 to 1
5 | COCC(=O)N[C@@H](Cc1ccccc1Cl)C(=O)Nc1ccc(C[C@H]2NC(=O)CC3(CCCC3)CC(=O)NCCCCCNC(=O)CNC2=O)cc1 [Compound 234] | 0.1 to 1
6 | O=C1CNC(=O)[C@@H](Cc2ccc(NC(=O)[C@H](Cc3ccccc3Cl)NC(=O)c3ccccc3O)cc2)NC(=O)CC2(CCCC2)CC(=O)NCCCCCN1 [Compound 330] | 0.1 to 1
7 | O=C1CNC(=O)[C@@H](Cc2ccc(NC(=O)[C@H](Cc3ccccc3Cl)NC(=O)CN3CCCC3)cc2)NC(=O)CC2(CCCC2)CC(=O)NCCCCCN1 [Compound 301] | 1 to 10
8 | C[C@@H](O)[C@@H]1NC(=O)[C@@H](Cc2ccc(NC(=O)[C@H](Cc3ccccc3Cl)NC(=O)Cc3ccccc3)cc2)NC(=O)CC2(CCCC2)CC(=O)NCCCCCNC1=O [Compound 321] | 0.1 to 1
9 | O=C1CNC(=O)[C@@H](Cc2ccc(NC(=O)[C@H](Cc3ccc(Cl)c(Cl)c3)NC(=O)Cc3ccccc3)cc2)NC(=O)CC2(CCCC2)CC(=O)NCCCCCN1 [Compound 241] | 0.1 to 1
10 | CC1(C)CC(=O)NCCCCCNC(=O)CNC(=O)[C@@H](Cc2ccc(NC(=O)[C@H](Cc3cccs3)NC(=O)c3cccnc3)cc2)NC(=O)C1 [Compound 258] | 1 to 10
11 | O=C1CC2(CCCC2)CC(=O)N[C@H](Cc2ccc(NC(=O)[C@H](Cc3ccccc3Cl)NC(=O)Cc3ccc(O)cc3)cc2)C(=O)N[C@H](Cc2ccccc2)C(=O)NCCCCCN1 [Compound 262] | < 0.1
12 | O=C1CNC(=O)[C@@H](Cc2ccc(NC(=O)[C@H](Cc3ccccc3Cl)NC(=O)c3ccc(F)cc3O)cc2)NC(=O)CC2(CCCC2)CC(=O)NCCCCCN1 [Compound 278] | 1 to 10
13 | O=C1CNC(=O)[C@@H](Cc2ccc(NC(=O)[C@H](Cc3ccccc3Cl)NC(=O)c3ccc(F)c(F)c3)cc2)NC(=O)CC2(CCCC2)CC(=O)NCCCCCN1 [Compound 297] | < 0.1
14 | O=C1CNC(=O)[C@@H](Cc2ccc(NC(=O)[C@H](Cc3ccccc3Cl)NC(=O)c3ccc(CO)cc3)cc2)NC(=O)CC2(CCCC2)CC(=O)NCCCCCN1 [Compound 219] | 0.1 to 1
15 | O=C1CNC(=O)[C@@H](Cc2ccc(NC(=O)[C@H](CC3CCCCC3)NC(=O)Cc3ccc(O)cc3)cc2)NC(=O)CC2(CCCC2)CC(=O)NCCCCCN1 [Compound 294] | < 0.1
16 | CC1(C)CC(=O)NCCCCCNC(=O)CNC(=O)[C@@H](Cc2ccc(NC(=O)[C@H](Cc3cccs3)NC(=O)Cc3ccc(O)cc3)cc2)NC(=O)C1 [Compound 257] | 0.1 to 1
17 | O=C1CNC(=O)[C@@H](Cc2ccc(NC(=O)[C@H](Cc3ccccc3Cl)NS(=O)(=O)c3ccccc3)cc2)NC(=O)CC2(CCCC2)CC(=O)NCCCCCN1 [Compound 271] | 1 to 10
18 | O=C1CNC(=O)[C@@H](Cc2ccc(NC(=O)[C@H](Cc3ccccc3Cl)NC(=O)c3ncco3)cc2)NC(=O)CC2(CCCC2)CC(=O)NCCCCCN1 [Compound 235] | 0.1 to 1
19 | O=C1CNC(=O)[C@@H](Cc2ccc(NC(=O)[C@H](Cc3ccccc3Cl)NC(=O)Cc3cccc(O)c3)cc2)NC(=O)CC2(CCCC2)CC(=O)NCCCCCN1 [Compound 217] | < 0.1
20 | O=C1CNC(=O)[C@@H](Cc2ccc(NC(=O)[C@H](Cc3ccccc3Cl)NC(=O)C3CCOCC3)cc2)NC(=O)CC2(CCCC2)CC(=O)NCCCCCN1 [Compound 220] | 0.1 to 1
21 | O=C1CC2(CCCC2)CC(=O)N[C@H](Cc2ccc(NC(=O)[C@H](Cc3ccccc3Cl)NC(=O)c3ccc(F)cc3)cc2)C(=O)N[C@@H](Cc2ccccc2)C(=O)NCCCCCN1 [Compound 309] | 0.1 to 1
22 | O=C1CNC(=O)[C@@H](Cc2ccc(NC(=O)[C@H](Cc3ccccc3Cl)NC(=O)c3ccc(C(=O)O)cc3)cc2)NC(=O)CC2(CCCC2)CC(=O)NCCCCCN1 [Compound 299] | 1 to 10

Row | SMILES | IC50 [µM]
23 | O=C1CNC(=O)[C@@H](Cc2ccc(NC(=O)[C@H](NC(=O)Cc3ccccc3)C3CCCCC3)cc2)NC(=O)CC2(CCCC2)CC(=O)NCCCCCN1 [Compound 315] | 1 to 10
24 | COC(=O)[C@@H]1CCCCNC(=O)CC2(CCCC2)CC(=O)N[C@H](Cc2ccc(NC(=O)[C@H](Cc3ccccc3Cl)NC(=O)Cc3ccccc3)cc2)C(=O)NCC(=O)N1 [Compound 285] | < 0.1
25 | O=C1CC2(CCCC2)CC(=O)N[C@H](Cc2ccc(NC(=O)[C@@H](NC(=O)Cc3ccc(CO)cc3)C3CCCCC3)cc2)C(=O)NCCCCCCCCN1 [Compound 337] | 0.1 to 1
26 | CC1(C)CC(=O)NCCCCCNC(=O)CNC(=O)[C@@H](Cc2ccc(NC(=O)[C@H](CC3CCC3)NC(=O)Cc3ccccc3)cc2)NC(=O)C1 [Compound 247] | 0.1 to 1
27 | O=C1CNC(=O)[C@@H](Cc2ccc(NC(=O)[C@H](Cc3ccccc3Cl)NC(=O)Cc3ccc(F)c(F)c3)cc2)NC(=O)CC2(CCCC2)CC(=O)NCCCCCN1 [Compound 298] | < 0.1
28 | CC(C)(C)OC[C@@H]1NC(=O)[C@@H](Cc2ccc(NC(=O)[C@H](Cc3ccccc3Cl)NC(=O)Cc3ccccc3)cc2)NC(=O)CC2(CCCC2)CC(=O)NCCCCCNC1=O [Compound 320] | 0.1 to 1
29 | O=C1CNC(=O)[C@@H](Cc2ccc(NC(=O)[C@H](Cc3ccc(Cl)cc3)NC(=O)Cc3ccccc3)cc2)NC(=O)CC2(CCCC2)CC(=O)NCCCCCN1 [Compound 240] | < 0.1
30 | O=C1CNC(=O)[C@@H](Cc2ccc(NC(=O)[C@H](Cc3ccc(F)cc3Cl)NC(=O)c3ccc(F)cc3)cc2)NC(=O)CC2(CCCC2)CC(=O)NCCOCCN1 [Compound 324] | 0.1 to 1
31 | CC1(C)CC(=O)NCCCCCNC(=O)CNC(=O)[C@@H](Cc2ccc(NC(=O)[C@H](CC3CC3)NC(=O)Cc3ccccc3)cc2)NC(=O)C1 [Compound 245] | 1 to 10
32 | CC(=O)N[C@H](C(=O)Nc1ccc(C[C@H]2NC(=O)CC(C)(C)CC(=O)NCCCCCNC(=O)CNC2=O)cc1)C1CCCCC1 [Compound 252] | 1 to 10
33 | CN1CCNC(=O)CNC(=O)[C@@H](Cc2ccc(NC(=O)[C@H](Cc3ccccc3Cl)NC(=O)Cc3ccccc3)cc2)NC(=O)CC2(CCCC2)CC(=O)NCC1 [Compound 323] | 0.1 to 1
34 | CN1CCCCCNC(=O)CC2(CCCC2)CC(=O)N[C@H](Cc2ccc(NC(=O)[C@H](Cc3ccccc3Cl)NC(=O)Cc3ccc(O)cc3)cc2)C(=O)NCC1=O [Compound 307] | < 0.1
35 | O=C1CNC(=O)[C@@H](Cc2ccc(NC(=O)[C@H](Cc3ccsc3)NC(=O)Cc3ccccc3)cc2)NC(=O)CC2(CCCC2)CC(=O)NCCCCCN1 [Compound 229] | < 0.1
36 | CN(C(=O)Cc1ccccc1)[C@@H](Cc1ccccc1)C(=O)Nc1ccc(C[C@H]2NC(=O)CC3(CCCC3)CC(=O)NCCCCCNC(=O)CNC2=O)cc1 [Compound 238] | 1 to 10
37 | CN1CCCCCNC(=O)CNC(=O)[C@@H](Cc2ccc(NC(=O)[C@H](Cc3ccccc3Cl)NC(=O)c3ccc(F)cc3)cc2)NC(=O)CC2(CCCC2)CC1=O [Compound 306] | 0.1 to 1
38 | CN(C)CC(=O)N[C@@H](Cc1ccccc1Cl)C(=O)Nc1ccc(C[C@H]2NC(=O)CC3(CCCC3)CC(=O)NCCCCCNC(=O)CNC2=O)cc1 [Compound 303] | 0.1 to 1
39 | CN1CCCCCNC(=O)CNC(=O)[C@@H](Cc2ccc(NC(=O)[C@@H](NC(=O)Cc3ccc(CO)cc3)C3CCCCC3)cc2)NC(=O)CC2(CCCC2)CC1=O [Compound 343] | 0.1 to 1
40 | C[C@H]1C(=O)NCCCCCNC(=O)CC2(CCCC2)CC(=O)N[C@H](Cc2ccc(NC(=O)[C@H](Cc3ccccc3Cl)NC(=O)Cc3ccccc3)cc2)C(=O)N1C [Compound 291] | 1 to 10
41 | O=C1CC2(CCCC2)CC(=O)N[C@H](Cc2ccc(NC(=O)[C@@H](NC(=O)Cc3ccccc3)C3CCCCC3)cc2)C(=O)N[C@H](Cc2ccccc2)C(=O)NCCCCCN1 [Compound 331] | 0.1 to 1
42 | C[C@@H]1C(=O)NCCCCCNC(=O)CC2(CCCC2)CC(=O)N[C@H](Cc2ccc(NC(=O)[C@H](Cc3ccccc3Cl)NC(=O)Cc3ccccc3)cc2)C(=O)N1C [Compound 289] | 1 to 10
43 | CN1CCCCCNC(=O)CC2(CCCC2)CC(=O)N[C@H](Cc2ccc(NC(=O)[C@H](Cc3ccccc3Cl)NC(=O)Cc3ccccc3)cc2)C(=O)NCC1=O [Compound 281] | < 0.1
44 | O=C1CC2(CCCC2)CC(=O)N[C@H](Cc2ccc(NC(=O)[C@@H](NC(=O)Cc3ccccc3)C3CCCCC3)cc2)C(=O)NCCCCCCCCN1 [Compound 334] | 1 to 10

Source: patent US9284283B2, “Macrocyclic compounds for modulating IL-17” (ENSEMBLE THERAPEUTICS CORPORATION, priority 2012, dated 2016)
